Results published in ChEMBL document CHEMBL1201862, “PubChem BioAssay data set” (2004).
Active and inactive are the calls of the source.

Key:
[1] = target: T1, Bcl-2-related protein A1 (Mus musculus, UniProt Q07440); experiment: Bfl-1 inhibitors blocking BH3 peptide binding, confirmation, biochemical, TR-FRET, mouse Bfl-1 (AID 621);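 also: TR-FRET binding of GST-Bfl-1 to FITC-labelled Bid peptide via terbium antibody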
T1 sequence (Q07440 whole entry): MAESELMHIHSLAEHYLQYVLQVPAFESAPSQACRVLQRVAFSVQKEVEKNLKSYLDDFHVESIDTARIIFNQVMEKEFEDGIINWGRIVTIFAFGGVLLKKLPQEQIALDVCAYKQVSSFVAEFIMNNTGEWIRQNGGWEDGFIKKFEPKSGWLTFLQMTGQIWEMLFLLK

[2] = target: Glyceraldehyde-3-phosphate dehydrogenase (Homo sapiens, UniProt P04406)
[3] = target: T1, Bcl-2-related protein A1; experiment: Bfl-1 binding inhibitors, SAR follow-up, biochemical, fluorescence polarization (AID 1070)
[4] = target: Beta Lactamase (Pseudomonas aeruginosa, UniProt Q932Y6); experiment: beta-lactamase reporter inhibitor potency, dose response, artefact control for NOD2-RIPK2 interaction inhibitor project, BLA reporter cells, FRET fluorescence (AID 651552); type: functional, cell-based
[5] = target: Beta-galactosidase (Escherichia coli, UniProt Q8VNN2); experiment: beta-galactosidase enzyme inhibitors and activators, dose response, artefact control for CCR6 antagonist project, biochemical, E. coli enzyme, set 3 (AID 504712); type: functional
[6] = Fluorescence Cell-Based Dose Response to Identify Inhibitors of Thrombin Receptor-Activating Peptide SFLLRN-Mediated P-Selectin Induction on Platelets. [Related pubchem assays: 1663 (Primary HTS), 1889 (retest at dose ), 1891 (counterscreen), 1678 (Project Summary)]; type: functional
[7] = target: Luciferin 4-monooxygenase (Photinus pyralis, UniProt P08659); experiment: firefly luciferase enzyme inhibitors, dose response, biochemical, luminescence (AID 1891)
[8] = target: T2, Heat shock factor protein 1 (Mus musculus, UniProt P38532); experiment: HSF1 potentiators in luciferase reporter cells, confirmation, cell-based, NIH3T3, luminescence, dose retest (AID 435004); type: functional;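 also: stress induced by proteasome inhibitor MG132 added 30 min after compound; luciferase reporter driven by HSF1 response element in NIH3T3 cells; actives raise luminescence as potentiators of the MG132 stress response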
T2 sequence (P38532 whole entry): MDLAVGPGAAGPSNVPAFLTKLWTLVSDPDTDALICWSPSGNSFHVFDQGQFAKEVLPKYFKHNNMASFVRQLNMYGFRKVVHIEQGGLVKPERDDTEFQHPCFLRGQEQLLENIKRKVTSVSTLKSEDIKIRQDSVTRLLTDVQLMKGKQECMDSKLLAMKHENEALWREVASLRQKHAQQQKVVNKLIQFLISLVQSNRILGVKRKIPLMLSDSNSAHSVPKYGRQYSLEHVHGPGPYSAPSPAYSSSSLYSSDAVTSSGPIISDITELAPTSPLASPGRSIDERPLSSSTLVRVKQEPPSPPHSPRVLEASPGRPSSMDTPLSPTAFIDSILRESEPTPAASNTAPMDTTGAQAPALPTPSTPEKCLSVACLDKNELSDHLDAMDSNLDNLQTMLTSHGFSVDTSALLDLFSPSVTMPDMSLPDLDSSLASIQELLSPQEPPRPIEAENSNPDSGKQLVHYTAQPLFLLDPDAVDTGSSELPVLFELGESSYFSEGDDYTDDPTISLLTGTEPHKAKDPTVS

[9] = Fluorescence-based cell-based high throughput dose response assay for inhibitors of the interaction of nucleotide-binding oligomerization domain containing 2 (NOD2) and the receptor-interacting serine-threonine kinase 2 (RIPK2).; type: functional; conditions: Homo sapiens
[10] = Luminescence Cell-Based Dose Confirmation HTS to Identify Inhibitors of Platelet Dense Granule Release. [Related pubchem assays: 1663 (Primary HTS), 1678 (Summary of Project)]; type: functional
[11] = target: Cytochrome P450 2C19 (Homo sapiens, UniProt P33261); experiment: qHTS Assay for Inhibitors and Substrates of Cytochrome P450 2C19. [Related pubchem assays: 410 ]; type: ADME; conditions: read-out: Potency
[12] = target: Cytochrome P450 2C9 (Homo sapiens, UniProt P11712); conditions: Potency
[13] = target: Aspartyl aminopeptidase (Plasmodium falciparum 3D7, UniProt Q8I2J3); experiment: Counterscreen for inhibitors of M1 and M17 aminopeptidases: QFRET-based biochemical high throughput dose response assay for inhibitors of the Plasmodium falciparum M18 Aspartyl Aminopeptidase (PFM18AAP). [Related PubChem assays: 1619 (Screening assay (M17LAP inhibitors).), 1445 (Screening assay (M1AAP inhibitors).)]
[14] = target: Procathepsin L (Homo sapiens, UniProt P07711); experiment: cathepsin L inhibitors, dose response, counter-screen for M1/M17 aminopeptidase inhibitor project, biochemical, QFRET, 1536-well (AID 2214)
[15] = target: T3, Aminopeptidase N (Plasmodium falciparum FcB1/Columbia, UniProt O96935); experiment: P. falciparum M1AAP inhibitors, biochemical, fluorogenic H-Leu-NHMec substrate, 1536-well (AID 1445); design: species or system Plasmodium falciparum 3D7, 3D7
T3 sequence (O96935 whole entry): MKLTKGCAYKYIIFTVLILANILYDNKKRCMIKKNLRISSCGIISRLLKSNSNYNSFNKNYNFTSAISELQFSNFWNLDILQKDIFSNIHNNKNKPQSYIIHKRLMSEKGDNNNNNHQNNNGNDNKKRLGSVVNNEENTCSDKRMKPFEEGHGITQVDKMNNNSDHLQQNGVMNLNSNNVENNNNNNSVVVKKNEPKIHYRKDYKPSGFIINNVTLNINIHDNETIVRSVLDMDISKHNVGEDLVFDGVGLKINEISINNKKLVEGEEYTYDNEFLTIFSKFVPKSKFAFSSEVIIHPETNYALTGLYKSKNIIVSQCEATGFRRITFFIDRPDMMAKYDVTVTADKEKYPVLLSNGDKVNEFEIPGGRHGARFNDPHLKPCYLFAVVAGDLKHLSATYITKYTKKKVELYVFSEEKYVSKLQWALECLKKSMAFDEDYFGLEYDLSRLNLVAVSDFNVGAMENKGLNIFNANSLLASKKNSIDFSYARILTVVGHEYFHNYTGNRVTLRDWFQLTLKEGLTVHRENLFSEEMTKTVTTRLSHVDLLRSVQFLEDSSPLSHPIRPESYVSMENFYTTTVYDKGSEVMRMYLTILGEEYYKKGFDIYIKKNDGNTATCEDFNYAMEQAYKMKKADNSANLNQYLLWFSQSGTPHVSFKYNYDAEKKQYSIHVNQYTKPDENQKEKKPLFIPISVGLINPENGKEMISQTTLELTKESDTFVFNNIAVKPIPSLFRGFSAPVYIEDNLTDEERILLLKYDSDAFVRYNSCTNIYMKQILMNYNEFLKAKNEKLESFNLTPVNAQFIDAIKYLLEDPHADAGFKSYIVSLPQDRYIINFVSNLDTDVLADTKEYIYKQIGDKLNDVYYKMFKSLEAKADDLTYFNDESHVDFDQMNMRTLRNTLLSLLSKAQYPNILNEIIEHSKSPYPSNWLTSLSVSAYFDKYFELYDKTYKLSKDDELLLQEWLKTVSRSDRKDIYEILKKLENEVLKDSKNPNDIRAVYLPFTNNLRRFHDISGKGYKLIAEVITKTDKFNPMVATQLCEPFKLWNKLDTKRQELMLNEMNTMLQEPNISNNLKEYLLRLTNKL

[16] = target: Aryl hydrocarbon receptor (Homo sapiens, UniProt P35869); experiment: Luminescence-based cell-based high throughput dose response assay for activators of the Aryl Hydrocarbon Receptor (AHR). [Related pubchem assays: 2796 (Primary screen (AHR activators in singlicate)), 2845 (Confirmation screen (AHR activators in triplicate)), 434939 (Counterscreen (PXR activators in triplicate)), 2804 (Summary (AHR activators))]; type: ADME
[17] = inhibitors of intracellular T. cruzi replication, confirmation, NIH3T3 host cells, beta-gal luminescence (AID 2044); type: functional, cell-based;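 also: intracellular parasites grown in NIH/3T3 mouse fibroblasts as host cells; luminescent beta-galactosidase reporter signal from transgenic T. cruzi replicating inside host cells; inhibitors lower the luminescence signal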
[18] = target: T4, Streptokinase A (Streptococcus pyogenes serotype M1, UniProt P10520); experiment: S. pyogenes streptokinase expression inhibitors, potency, dose response, plasminogen activation absorbance, OD405 (AID 1914); type: functional, Streptococcus pyogenes M1 GAS;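 also: secreted streptokinase activity via plasminogen activation per viability signal from cell pellet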
T4 sequence (P10520 whole entry): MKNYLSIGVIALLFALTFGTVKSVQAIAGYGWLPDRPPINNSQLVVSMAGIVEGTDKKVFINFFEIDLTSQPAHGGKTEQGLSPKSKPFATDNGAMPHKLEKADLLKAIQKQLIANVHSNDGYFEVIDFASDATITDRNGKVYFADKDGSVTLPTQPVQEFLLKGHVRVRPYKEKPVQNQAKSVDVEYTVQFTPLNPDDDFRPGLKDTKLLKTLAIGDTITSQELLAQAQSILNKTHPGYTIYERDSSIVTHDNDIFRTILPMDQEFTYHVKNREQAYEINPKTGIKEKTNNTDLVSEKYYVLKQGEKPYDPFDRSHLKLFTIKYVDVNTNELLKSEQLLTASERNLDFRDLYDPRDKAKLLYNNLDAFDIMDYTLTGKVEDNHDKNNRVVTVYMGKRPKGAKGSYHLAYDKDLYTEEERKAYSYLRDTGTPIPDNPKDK

[19] = test system: Vero; experiment: host cell cytotoxicity of antiviral hits, dose response, cytotoxicity control for West Nile virus antiviral project, secondary assay (AID 1650); type: functional; conditions: Chlorocebus sabaeus
[20] = cytotoxicity toward NIH3T3 fibroblasts, dose response, counter-screen, cell-based, ATP luminescence, mouse fibroblasts (AID 2010); type: functional;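 also: cells exposed to compound for about 90 hours before reading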
[21] = test system: Streptococcus; experiment: Group A Streptococcus viability loss, dose response, counter-screen for streptokinase expression inhibitor project, luminescence, BacTiterGlo (AID 1915); type: functional, organism-based;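 also: potency for reduction of bacterial viability or growth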
[22] = test system: Streptococcus sp. 'group A'; experiment: growth inhibition of control SK(-) GAS strain, dose response, counter-screen for streptokinase expression inhibitor project, luminescence, kanamycin, BacTiterGlo, confirmation (AID 1900); type: functional, organism-based
[23] = Luminescence Cell-Based Dose Response to Identify Activators of 5'UTR Stem-Loop Driven Prion Protein mRNA Translation in H4-C Neuroglioblastoma Cells. [Related pubchem assays: 1829 (Project Summary), 1814 (Primary HTS)]; type: functional
[24] = Luminescence Cell-Based Dose Confirmation to Identify Activators of 5'UTR Stem-Loop Driven Alpha-Synuclein mRNA Translation in H4 Neuroglioblastoma Cells. [Related pubchem assays: 1829 (Project Summary), 1814 (Primary HTS)]; type: functional
[25] = Luminescence Cell-Based Dose Response to Identify Activators of Luciferase Translation or Activity in H4-C Neuroglioblastoma Cells. [Related pubchem assays: 1829 (Project Summary), 1814 (Primary HTS)]; type: functional
[26] = test system: H4; experiment: Luminescence Cell-Based Dose Response HTS to Identify Activators of 5'UTR Stem-Loop Driven Prion Protein mRNA Translation in H4 Neuroglioblastoma Cells. [Related pubchem assays: 1829 (Project Summary), 1814 (Primary HTS)]; type: functional; conditions: Homo sapiens
[27] = Luminescence Cell-Based Dose Confirmation HTS to Identify Activators of 5'UTR Stem-Loop Driven Alpha-Synuclein mRNA Translation in H4 Neuroglioblastoma Cells. [Related pubchem assays: 1829 (Project Summary), 1814 (Primary HTS)]; type: functional
[28] = target: Sphingosine 1-phosphate receptor 1 (Homo sapiens, UniProt P21453); experiment: Dose Response Cell-Based Assay for Agonists of the Sphingosine 1-Phosphate Receptor 1 (S1P1): Purchased Analogues. [Related pubchem assays: 1192, 373, 439 ]; type: functional
[29] = target: Sphingosine 1-phosphate receptor 3 (Homo sapiens, UniProt Q99500); experiment: Dose Response Cell-Based Assay for Agonists of the Sphingosine 1-Phosphate Receptor 3 (S1P3): Purchased Analogues. [Related pubchem assays: 373, 439 ]; type: functional
[30] = target: Sphingosine 1-phosphate receptor 2 (Homo sapiens, UniProt O95136); experiment: Dose Response Cell-Based Assay for Agonists of the Sphingosine 1-Phosphate Receptor 2 (S1P2): Purchased Analogues. [Related pubchem assays: 1192, 373, 439 ]; type: functional
Chain of Sphingosine 1-phosphate receptor 2 (O95136 whole entry): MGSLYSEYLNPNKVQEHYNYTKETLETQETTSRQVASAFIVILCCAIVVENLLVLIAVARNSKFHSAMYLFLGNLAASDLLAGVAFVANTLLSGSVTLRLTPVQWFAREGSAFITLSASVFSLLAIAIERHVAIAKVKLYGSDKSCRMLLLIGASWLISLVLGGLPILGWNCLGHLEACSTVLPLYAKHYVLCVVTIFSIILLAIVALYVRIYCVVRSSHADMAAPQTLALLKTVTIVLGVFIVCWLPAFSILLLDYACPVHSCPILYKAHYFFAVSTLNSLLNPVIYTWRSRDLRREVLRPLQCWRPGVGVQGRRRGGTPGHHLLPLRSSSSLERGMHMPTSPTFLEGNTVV

Chain of Aspartyl aminopeptidase (Q8I2J3 whole entry): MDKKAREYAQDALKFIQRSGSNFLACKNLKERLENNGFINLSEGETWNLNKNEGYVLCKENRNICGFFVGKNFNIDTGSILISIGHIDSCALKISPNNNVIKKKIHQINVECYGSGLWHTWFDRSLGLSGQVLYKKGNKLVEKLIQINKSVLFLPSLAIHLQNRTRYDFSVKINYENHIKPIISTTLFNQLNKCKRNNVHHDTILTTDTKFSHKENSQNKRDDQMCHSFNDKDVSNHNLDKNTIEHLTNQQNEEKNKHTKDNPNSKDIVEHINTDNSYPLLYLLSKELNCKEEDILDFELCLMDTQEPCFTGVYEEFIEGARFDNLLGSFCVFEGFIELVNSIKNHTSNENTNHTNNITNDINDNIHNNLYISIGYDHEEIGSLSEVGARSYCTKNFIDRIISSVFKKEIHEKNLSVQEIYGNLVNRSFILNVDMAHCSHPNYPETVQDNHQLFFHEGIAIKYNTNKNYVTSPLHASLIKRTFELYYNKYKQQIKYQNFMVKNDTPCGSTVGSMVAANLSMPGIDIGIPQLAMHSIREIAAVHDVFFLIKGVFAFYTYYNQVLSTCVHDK
Chain of Aryl hydrocarbon receptor (P35869 whole entry): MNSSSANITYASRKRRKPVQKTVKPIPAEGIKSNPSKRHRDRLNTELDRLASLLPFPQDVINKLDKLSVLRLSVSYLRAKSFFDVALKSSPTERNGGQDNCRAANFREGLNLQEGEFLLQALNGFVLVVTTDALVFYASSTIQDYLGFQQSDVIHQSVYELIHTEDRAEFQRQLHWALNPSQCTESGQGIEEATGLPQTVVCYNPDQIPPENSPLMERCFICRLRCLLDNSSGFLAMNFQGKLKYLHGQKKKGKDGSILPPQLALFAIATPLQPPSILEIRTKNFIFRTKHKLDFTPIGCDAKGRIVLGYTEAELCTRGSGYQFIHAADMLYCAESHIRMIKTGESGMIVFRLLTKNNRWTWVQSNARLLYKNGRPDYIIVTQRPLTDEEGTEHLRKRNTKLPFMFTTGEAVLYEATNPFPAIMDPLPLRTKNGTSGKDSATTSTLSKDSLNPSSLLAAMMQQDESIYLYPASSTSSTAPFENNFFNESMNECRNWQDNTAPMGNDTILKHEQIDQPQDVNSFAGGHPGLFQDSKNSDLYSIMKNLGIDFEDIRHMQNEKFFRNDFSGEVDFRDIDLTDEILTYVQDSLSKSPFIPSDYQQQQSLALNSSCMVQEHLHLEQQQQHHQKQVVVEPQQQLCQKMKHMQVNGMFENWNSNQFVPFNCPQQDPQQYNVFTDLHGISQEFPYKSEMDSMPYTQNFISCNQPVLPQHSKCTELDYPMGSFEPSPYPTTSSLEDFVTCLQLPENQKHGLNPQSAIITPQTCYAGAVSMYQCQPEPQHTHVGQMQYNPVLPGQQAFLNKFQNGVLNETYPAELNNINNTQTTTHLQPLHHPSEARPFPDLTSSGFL
Chain of Glyceraldehyde-3-phosphate dehydrogenase (P04406 whole entry): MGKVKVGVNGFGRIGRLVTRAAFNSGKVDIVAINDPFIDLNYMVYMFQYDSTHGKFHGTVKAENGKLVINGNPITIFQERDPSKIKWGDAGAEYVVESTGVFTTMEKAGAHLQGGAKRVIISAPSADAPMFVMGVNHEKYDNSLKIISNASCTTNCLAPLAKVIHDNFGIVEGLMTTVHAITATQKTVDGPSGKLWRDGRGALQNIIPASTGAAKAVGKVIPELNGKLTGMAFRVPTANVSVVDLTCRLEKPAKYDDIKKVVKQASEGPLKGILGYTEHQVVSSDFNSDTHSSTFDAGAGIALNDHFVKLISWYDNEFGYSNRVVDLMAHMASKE
Chain of Procathepsin L (P07711 whole entry): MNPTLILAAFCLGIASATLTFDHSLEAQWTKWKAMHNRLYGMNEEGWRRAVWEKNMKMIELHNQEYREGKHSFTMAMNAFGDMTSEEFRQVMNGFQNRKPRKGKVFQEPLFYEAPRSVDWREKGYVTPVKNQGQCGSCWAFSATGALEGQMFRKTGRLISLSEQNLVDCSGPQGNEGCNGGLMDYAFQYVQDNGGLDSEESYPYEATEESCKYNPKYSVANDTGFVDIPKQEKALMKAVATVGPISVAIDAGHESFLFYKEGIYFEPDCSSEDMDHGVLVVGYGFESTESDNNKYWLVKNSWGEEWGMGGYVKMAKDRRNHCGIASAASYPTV
Chain of Cytochrome P450 2C9 (P11712 whole entry): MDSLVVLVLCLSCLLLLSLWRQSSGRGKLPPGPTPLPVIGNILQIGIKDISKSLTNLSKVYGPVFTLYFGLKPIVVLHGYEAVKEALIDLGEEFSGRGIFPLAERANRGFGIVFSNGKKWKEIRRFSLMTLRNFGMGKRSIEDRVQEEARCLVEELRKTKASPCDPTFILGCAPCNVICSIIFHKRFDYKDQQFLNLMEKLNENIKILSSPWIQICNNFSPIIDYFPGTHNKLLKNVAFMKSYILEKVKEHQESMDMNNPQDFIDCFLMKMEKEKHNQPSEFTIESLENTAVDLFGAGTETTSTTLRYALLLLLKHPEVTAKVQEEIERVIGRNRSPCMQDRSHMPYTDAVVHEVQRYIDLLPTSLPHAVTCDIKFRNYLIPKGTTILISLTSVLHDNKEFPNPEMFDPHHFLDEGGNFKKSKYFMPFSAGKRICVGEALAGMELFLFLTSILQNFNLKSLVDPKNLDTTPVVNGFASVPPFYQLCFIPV
Chain of Sphingosine 1-phosphate receptor 1 (P21453 whole entry): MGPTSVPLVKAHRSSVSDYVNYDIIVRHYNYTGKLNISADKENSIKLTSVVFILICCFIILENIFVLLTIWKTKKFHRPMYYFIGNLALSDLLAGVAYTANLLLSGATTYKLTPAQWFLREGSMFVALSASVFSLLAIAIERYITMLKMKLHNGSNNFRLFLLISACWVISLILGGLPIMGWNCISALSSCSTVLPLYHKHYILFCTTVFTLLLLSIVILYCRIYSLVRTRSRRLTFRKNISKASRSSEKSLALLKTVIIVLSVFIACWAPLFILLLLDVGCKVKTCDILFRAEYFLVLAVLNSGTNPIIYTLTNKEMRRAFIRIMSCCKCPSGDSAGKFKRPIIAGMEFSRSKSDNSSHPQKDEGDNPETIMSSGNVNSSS
Chain of Beta Lactamase (Q932Y6 whole entry): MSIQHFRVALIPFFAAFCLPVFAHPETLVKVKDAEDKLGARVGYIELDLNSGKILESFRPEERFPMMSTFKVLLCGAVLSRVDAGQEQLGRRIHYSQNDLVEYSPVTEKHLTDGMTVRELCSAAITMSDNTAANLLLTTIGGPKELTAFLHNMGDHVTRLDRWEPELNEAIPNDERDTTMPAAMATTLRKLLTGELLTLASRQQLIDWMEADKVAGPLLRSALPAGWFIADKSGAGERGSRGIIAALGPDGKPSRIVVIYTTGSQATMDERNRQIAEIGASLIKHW
Chain of Sphingosine 1-phosphate receptor 3 (Q99500 whole entry): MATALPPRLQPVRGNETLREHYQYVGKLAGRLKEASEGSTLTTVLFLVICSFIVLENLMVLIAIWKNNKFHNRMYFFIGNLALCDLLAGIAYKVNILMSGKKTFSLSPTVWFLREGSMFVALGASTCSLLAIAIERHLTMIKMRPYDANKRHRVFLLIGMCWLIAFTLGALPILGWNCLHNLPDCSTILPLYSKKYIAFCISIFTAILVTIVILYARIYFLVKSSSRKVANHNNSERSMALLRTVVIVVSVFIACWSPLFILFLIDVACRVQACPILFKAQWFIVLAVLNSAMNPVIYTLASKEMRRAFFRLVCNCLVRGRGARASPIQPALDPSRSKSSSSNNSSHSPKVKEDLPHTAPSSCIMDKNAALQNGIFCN
Chain of Cytochrome P450 2C19 (P33261 whole entry): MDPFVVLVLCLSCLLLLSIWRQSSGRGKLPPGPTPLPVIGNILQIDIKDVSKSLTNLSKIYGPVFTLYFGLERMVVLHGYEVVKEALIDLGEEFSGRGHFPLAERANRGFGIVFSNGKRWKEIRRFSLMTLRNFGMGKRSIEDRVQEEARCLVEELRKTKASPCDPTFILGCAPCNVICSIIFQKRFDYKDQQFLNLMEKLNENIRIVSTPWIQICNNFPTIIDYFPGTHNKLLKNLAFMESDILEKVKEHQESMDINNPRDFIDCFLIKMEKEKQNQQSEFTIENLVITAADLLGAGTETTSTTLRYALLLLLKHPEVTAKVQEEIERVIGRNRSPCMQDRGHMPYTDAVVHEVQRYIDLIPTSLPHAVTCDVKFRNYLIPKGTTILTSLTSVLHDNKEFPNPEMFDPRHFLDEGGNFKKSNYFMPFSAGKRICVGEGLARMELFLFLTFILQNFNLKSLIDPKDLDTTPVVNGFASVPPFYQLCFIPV

## O=C1C(Cl)=C(N2CCN(c3cccc(C(F)(F)F)c3)CC2)C(=O)N1c1ccc(Cl)c(Cl)c1
[1]
  IC50: > 100 µM (not active)
[2]
  IC50: > 100 µM (not active)
[3]
  IC50: > 100 µM (not active)

## Cc1ccc(NN2C(=O)C=C(c3ccccc3)C2=O)cc1
[4]
  IC50: 28.7 µM (inactive)
[5]
  IC50: > 66.6 µM (inactive)
[6]
  EC50: < 30 µM (active)
[7]
  EC50: > 112 µM (not active)
[8]
  EC50: 10.5 µM (active)
[9]
  IC50: 1.72 µM (active)
[10]
  EC50: 5.06 µM (active)

## COc1ccc(C(=O)[C@H]2[C@H]3[C@@H](C(=O)[C@@H]4OC[C@H]3O4)[C@H]3C=Cc4ccccc4N32)c(OC)c1
[11]
  AC50: 31.6 µM (inconclusive)
[12]
  AC50: 31.6 µM (inconclusive)

## O=C(NCc1ccco1)C1CCCN(S(=O)(=O)c2cccc3nonc23)C1 (stereo not given)
[13]
  IC50: > 73.5 µM (not active)
[14]
  IC50: > 59.6 µM (not active)
[15]
  IC50: 18.6 µM (active)

## Cc1ccc(-c2cc(-c3cccs3)[nH]n2)c(O)c1
[16]
  EC50: 1.21 µM (active)

## O=C(Nc1ccc(OC(F)(F)F)cc1)N1CCN(c2ccnc3cc(Cl)ccc23)CC1
[17]
  EC50: 2.06 µM (active)
[18]
  EC50: 12.7 µM (active)
[19]
  CC50: 2.95 µM (active)
[20]
  EC50: 14.4 µM (active)
[21]
  EC50: > 150 µM (not active)
[22]
  EC50: 9.61 µM (active)

## CCc1cc2c(=O)n3c(nc2s1)-c1[nH]c2ccc(OC)cc2c1CC3
[23]
  EC50: > 12 µM (not active)
[24]
  EC50: 0.498 µM (active)
[25]
  EC50: 0.354 µM (active)
[26]
  EC50: 3.18 µM (active)
[27]
  EC50: < 0.1 µM (active)

## O=C(NC1CCCCC1)c1cc(-c2ccccc2)on1
[28]
  EC50: 0.897 µM (active)
[29]
  EC50: > 50 µM (not active)
[30]
  EC50: > 10 µM (not active)
